MIC, LD50 and ED50 data for one compound are collected here from US5064953A, “Intermediates cephalosporin derivatives” (Mochida Pharmaceutical Co., Ltd., priority 1983, dated 1991).

Converted amounts (≈) assume the structure as drawn. Bounds are passed on as bounds.

Data set [1] has as its system Serratia marcescens IF03759. Kind of data set: Antibacterial activity in vitro, agar plate dilution method (MIC). It counts as cell-based. Conditions: 10^6 cells/ml, Mueller Hinton agar, 37° C., 20 hours. How it is done: (§1) Antibacterial activity in vitro was determined in accordance with the agar plate dilution method. A platinum loop each of test bacteria (10^6 cells/ml), cultured in Mueller Hinton broth, was inoculated on Mueller Hinton agar plates which contained test compounds at various concentrations. After cultivating at 37° C. for 20 hours, the minimum inhibitory concentration (MIC μg/ml) was determined.

The subject of data set [2] is Klebsiella pneumoniae IF03317. The description is as above. In kind it is cell-based. Conditions: 10^6 cells/ml, Mueller Hinton agar, 37° C., 20 hours. How it is done:
as §1

Data set [3] deals with Pseudomonas aeruginosa IF03445. The data set is described as above. It counts as cell-based. As to conditions: 10^6 cells/ml, Mueller Hinton agar, 37° C., 20 hours. How it is done:
as §1

For a further data set, the system named is Proteus morganii IF03848. The description is as above. It counts as cell-based. As to conditions: Morganella morganii, 10^6 cells/ml, Mueller Hinton agar, 37° C., 20 hours. How it is done: as §1
Data set [4] relates to Escherichia coli 67. Described as above. It counts as cell-based. As to conditions: 10^6 cells/ml, Mueller Hinton agar, 37° C., 20 hours. How it is done:
as §1

Data set [5] relates to Staphylococcus aureus Smith. The data set is described as above. In kind it is cell-based. As to conditions: 10^6 cells/ml, Mueller Hinton agar, 37° C., 20 hours. How it is done: as §1
Data set [6] can be described thus: LD50 determined in accordance with the Probit method. As to conditions: in vivo, iv. How it is done:
Next, LD50 of representative examples of the compounds of the present invention is shown in Table 3 wherein LD50 was determined in accordance with the Probit method.

Data set [7] relates to Klebsiella pneumoniae IF03317. The data set can be described thus: Protection ability against systemic infection. It counts as in vivo. Conditions: IF03317, iv, 168 h, ICR mice, intraperitoneal infection, compound intravenously 1 hour after infection, survival at 1 week. How it is done:
(§2) Protection ability against systemic infection was determined as follows. An aqueous suspension of test bacteria was intraperitoneally injected into groups of 10 four week old ICR mice. One hour after the infection, test compounds were intravenously administered. The number of surviving mice was counted 1 week after injection to determine the dose at which 50% of the test animals were alive (ED50 :mg/kg).

The test system of data set [8] is Pseudomonas aeruginosa IF03445. The data set can be described thus: Protection ability against systemic infection. In kind it is in vivo. As to conditions: IF03445, iv, 168 h, ICR mice, intraperitoneal infection, compound intravenously 1 hour after infection, survival at 1 week. How it is done:
as §2

Data set [9] deals with Escherichia coli 67. The data set can be described thus: Protection ability against systemic infection. It counts as in vivo. As to conditions: Escherichia coli, 67, iv, 168 h; ICR mice, intraperitoneal infection, compound intravenously 1 hour after infection, survival at 1 week. How it is done: as §2

As usually defined, the MIC is the lowest concentration found to suppress growth. A high value points to a less susceptible organism. Usually LD50 stands for the dose at which mortality reaches 50%. A higher LD50 goes with lower toxicity. For orientation: ED50 means the dose at which the effect has come halfway, by size or by number of responders. The low end stands for an effect at a small dose, the high end for a need for a large dose. Turning to `CO/N=C(\C(=O)N[C@@H]1C(=O)N2C(C(=O)O)=C(CSc3cc(C(=O)O)nc4ncnn34)CS[C@H]12)c1csc(N)n1` [Compound 6, (6R,7R)-7-[2-(2-amino-4-thiazolyl)-2-(Z-methoxyimino)acetamido]-3-[(5-carboxy-s-triazolo[1,5-a]pyrimidin-7-yl)thiomethyl]-8-oxo-5-thia-1-azabicyclo [4.2.0]oct-2-ene-2-carboxylic acid], the MIC in data set [1] is 0.2 µg/mL (≈ 0.338 µM); in data set [2] it was under 0.05 µg/mL; in [3], 6.25 µg/mL (≈ 10.6 µM); in the data set on Proteus morganii IF03848 it was 0.2 µg/mL (≈ 0.338 µM); against Escherichia coli 67 [4], under 0.05 µg/mL; in data set [5] it was 1.57 µg/mL (≈ 2.65 µM). The compound further gave an LD50 in [6] of over 1000 mg/kg. For the same compound, the ED50 in data set [7] was 0.1 mg/kg; in data set [8] it was 230 mg/kg; with Escherichia coli 67 [9], 0.8 mg/kg.
